Patent US20220363709A1, “ECTONU[…] METHODS OF USE THEREOF” (priority 2019, published 2022)

biological target: T1, recombinant CD73 (Homo sapiens, UniProt P21589); assay: Assay 1: Inhibition of the CD73 Enzyme In Vitro; format: biochemical; conditions: soluble recombinant CD73 0.5 nM, AMP 50 μM, 30 minutes at room temperature, Malachite Green, absorbance at 630 nm; read-out: Assay 1 CD73 IC50
T1 construct: purchased R&D Systems 5795-EN-010
T1 sequence (P21589 27-547 limits assumed): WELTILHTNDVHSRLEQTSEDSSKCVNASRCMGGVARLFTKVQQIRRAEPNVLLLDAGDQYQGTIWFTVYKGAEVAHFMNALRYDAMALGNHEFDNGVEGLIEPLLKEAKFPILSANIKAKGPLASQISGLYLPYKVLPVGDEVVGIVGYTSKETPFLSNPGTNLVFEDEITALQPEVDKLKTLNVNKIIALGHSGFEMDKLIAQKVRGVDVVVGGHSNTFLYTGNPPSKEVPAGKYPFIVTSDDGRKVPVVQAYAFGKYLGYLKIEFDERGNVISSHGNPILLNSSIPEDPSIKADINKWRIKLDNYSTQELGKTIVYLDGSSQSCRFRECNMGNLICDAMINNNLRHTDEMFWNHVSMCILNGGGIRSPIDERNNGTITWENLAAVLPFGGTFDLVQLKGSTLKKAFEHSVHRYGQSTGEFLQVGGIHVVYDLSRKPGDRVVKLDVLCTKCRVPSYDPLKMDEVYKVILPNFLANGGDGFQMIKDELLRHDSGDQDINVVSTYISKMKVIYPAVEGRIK
Description: Serial dilutions of test compounds were incubated with recombinant CD73 and AMP in reaction buffer (25 mM Tris HCl pH7.5, 5 mM MgCl2, 50 mM NaCl, 0.25 mM DTT, 0.005% Triton X-100). The final reaction volume was 25 μL and the final concentrations of recombinant CD73 and AMP were 0.5 nM and 50 μM, respectively. […] After 5 minutes at room temperature, absorbance at 630 nm was determined on a microplate spectrophotometer. The concentration of inorganic phosphate was determined using a phosphate standard curve.
ND indicates not determined.

SMILES | IC50
COc1cccc(CO)c1-c1ccc(C[C@@](OC[C@H]2O[C@@H](n3cnc4c(N)nc(Cl)nc43)[C@H](O)[C@@H]2O)(C(=O)O)c2cscn2)cc1 (single isomer, unassigned) [Example 39] | 68 nM
Nc1nc(Cl)nc2c1ncn2[C@@H]1O[C@H](CO[C@](Cc2ccc(-c3ccccc3C(=O)O)cc2)(C(=O)O)c2ccccc2)[C@@H](O)[C@H]1O (single isomer, unassigned) [Example 47] | 4220 nM
Nc1nc(Cl)nc2c1ncn2[C@@H]1O[C@H](COC(Cc2ccc(-c3ccccc3C(=O)O)cc2)(C(=O)O)c2ccsc2)[C@@H](O)[C@H]1O (mixture of isomers) [Example 49, 4′-(2-(((2R,3S,4R,5R)-5-(6-amino-2-chloro-9H-purin-9-yl)-3,4-dihydroxytetrahydrofuran-2-yl)methoxy)-2-carboxy-2-(thiophen-3-yl)ethyl)-[1,1′-biphenyl]-2-carboxylic acid] | 2270 nM
Cc1cc(C(Cc2ccccc2)(OC[C@H]2O[C@@H](n3cnc4c(N)nc(Cl)nc43)[C@H](O)[C@@H]2O)C(=O)O)no1 (mixture of isomers) [Example 37, 2-(((2R,3S,4R,5R)-5-(6-amino-2-chloro-9H-purin-9-yl)-3,4-dihydroxytetrahydrofuran-2-yl)methoxy)-2-(5-methylisoxazol-3-yl)-3-phenylpropanoic acid] | 8730 nM
Nc1nc(Cl)nc2c1ncn2[C@@H]1O[C@H](COC(C(=O)O)c2cscn2)[C@@H](O)[C@@H]1F (mixture of isomers) [Example 14, 2-(((2R3R,4S,5R)-5-(6-amino-2-chloro-9H-purin-9-yl)-4-fluoro-3-hydroxytetrahydrofuran-2-yl)methoxy)-2-(thiazol-4-yl)acetic acid] | 22100 nM
Nc1nc(Cl)nc2c1ncn2[C@@H]1O[C@H](CO[C@@](Cc2ccc(-c3ccccc3C(=O)O)cc2)(C(=O)O)c2ccccc2)[C@@H](O)[C@H]1O (single isomer, unassigned) [Example 48] | 14100 nM
Nc1nc([C@@](Cc2ccccc2)(OC[C@H]2O[C@@H](n3cnc4c(N)nc(Cl)nc43)[C@H](O)[C@@H]2O)C(=O)O)cs1 (single isomer, unassigned) [Example 31] | 1970 nM
CCCCOc1nc(Cl)nc2c1ncn2[C@@H]1O[C@H](COC(Cc2ccccc2)(C(=O)O)c2cscn2)[C@@H](O)[C@@H]1F (mixture of isomers) [Example 23, 2-(((2R,3R,4S,5R)-5-(6-butoxy-2-chloro-9H-purin-9-yl)-4-fluoro-3-hydroxytetrahydrofuran-2-yl)methoxy)-3-phenyl-2-(thiazol-4-yl)propanoic acid] | 3420 nM
CCCNc1nc(Cl)nc2c1ncn2[C@@H]1O[C@H](COC(Cc2ccc(-c3ccccc3C(=O)O)cc2)(C(=O)O)c2cscn2)[C@@H](O)[C@@H]1F (mixture of isomers) [Example 25, 4′-(2-carboxy-2-(((2R,3R,4S,5R)-5-(2-chloro-6-(propylamino)-9H-purin-9-yl)-4-fluoro-3-hydroxytetrahydrofuran-2-yl)methoxy)-2-(thiazol-4-yl)ethyl)-[1,1′-biphenyl]-2-carboxylic acid] | 382 nM
CCCNc1nc(Cl)nc2c1ncn2[C@@H]1O[C@H](COC(Cc2ccccc2)(C(=O)O)c2cscn2)[C@@H](O)[C@@H]1F (mixture of isomers) [Example 24, 2-(((2R,3R4S,5R)-5-(2-chloro-6-(propylamino)-9H-purin-9-yl)-4-fluoro-3-hydroxytetrahydrofuran-2-yl)methoxy)-3-phenyl-2-(thiazol-4-yl)propanoic acid] | 1240 nM
Nc1nc(Cl)nc2c1ncn2[C@@H]1O[C@H](CO[C@](Cc2ccccc2)(C(=O)O)c2cocn2)[C@@H](O)[C@H]1O (single isomer, unassigned) [Example 35] | 290 nM
Nc1nc(Cl)nc2c1ncn2[C@@H]1O[C@H](CO[C@@](Cc2ccccc2)(C(=O)O)c2cocn2)[C@@H](O)[C@H]1O (single isomer, unassigned) [Example 36] | 6260 nM

Results, then the molecule that gave them:

IC50 | SMILES
241 nM | Nc1nc(Cl)nc2c1ncn2[C@@H]1O[C@H](CO[C@](Cc2ccc(-c3ccccc3)cc2)(C(=O)O)c2cscn2)[C@@H](O)[C@@H]1F (single isomer, unassigned) [Example 8]
64 nM | Nc1nc(Cl)nc2c1ncn2[C@@H]1O[C@H](CO[C@](Cc2ccc(-c3ccc(C(=O)O)cc3)cc2)(C(=O)O)c2cscn2)[C@@H](O)[C@H]1O (single isomer, unassigned) [Example 2]
2640 nM | Nc1nc(Cl)nc2c1ncn2[C@@H]1O[C@H](CO[C@@](Cc2ccc(-c3ccccc3)cc2)(C(=O)O)c2cscn2)[C@@H](O)[C@@H]1F (single isomer, unassigned) [Example 9]
227 nM | Nc1nc(Cl)nc2c1ncn2[C@@H]1O[C@H](CO[C@](Cc2ccc(-c3ccc(C(=O)O)cc3)cc2)(C(=O)O)c2cscn2)[C@@H](O)[C@@H]1F (single isomer, unassigned) [Example 10]
106 nM | Nc1nc(Cl)nc2c1ncn2[C@@H]1O[C@H](COC(Cc2ccc(-c3ccccc3)cc2)(C(=O)O)c2csc(Cl)n2)[C@@H](O)[C@H]1O (mixture of isomers) [Example 27, 3-([1,1′-biphenyl]-4-yl)-2-(((2R,3S,4R,5R)-5-(6-amino-2-chloro-9H-purin-9-yl)-3,4-dihydroxytetrahydrofuran-2-yl)methoxy)-2-(2-chlorothiazol-4-yl)propanoic acid]
51 nM | Nc1nc(Cl)nc2c1ncn2[C@@H]1O[C@H](CO[C@](Cc2ccc(-c3ccccc3OC(F)(F)F)cc2)(C(=O)O)c2cscn2)[C@@H](O)[C@H]1O (single isomer, unassigned) [Example 43]
99 nM | Nc1nc(Cl)nc2c1ncn2[C@@H]1O[C@H](COC(Cc2ccc(-c3ccccc3)cc2)(C(=O)O)c2cscn2)[C@@H](O)[C@H]1O (mixture of isomers) [Example 1, 3-([1,1′-biphenyl]-4-yl)-2-(((2R,3S,4R,5R)-5-(6-amino-2-chloro-9H-purin-9-yl)-3,4-dihydroxytetrahydrofuran-2-yl)methoxy)-2-(thiazol-4-yl)propanoic acid]
39 nM | Nc1nc(Cl)nc2c1ncn2[C@@H]1O[C@H](CO[C@](Cc2ccc(-c3ccccc3CC(=O)O)cc2)(C(=O)O)c2cscn2)[C@@H](O)[C@H]1O (single isomer, unassigned) [Example 6]
182 nM | Nc1nc(Cl)nc2c1ncn2[C@@H]1O[C@H](COC(Cc2ccc(-c3ccccc3CC(=O)O)cc2)(C(=O)O)c2cscn2)[C@@H](O)[C@@H]1F (mixture of isomers) [Example 18, 2-(((2R3R,4S,5R)-5-(6-amino-2-chloro-9H-purin-9-yl)-4-fluoro-3-hydroxytetrahydrofuran-2-yl)methoxy)-3-(2′-(carboxymethyl)-[1,1′-biphenyl]-4-yl)-2-(thiazol-4-yl)propanoic acid]
502 nM | N#CCc1ccccc1-c1ccc(C[C@](OC[C@H]2O[C@@H](n3cnc4c(N)nc(Cl)nc43)[C@H](O)[C@@H]2O)(C(=O)O)c2cscn2)cc1 (single isomer, unassigned) [Example 5]
35 nM | N#CCc1ccccc1-c1ccc(C[C@@](OC[C@H]2O[C@@H](n3cnc4c(N)nc(Cl)nc43)[C@H](O)[C@@H]2O)(C(=O)O)c2cscn2)cc1 (single isomer, unassigned) [Example 4]
2750 nM | COc1ncccc1-c1ccc(C[C@](OC[C@H]2O[C@@H](n3cnc4c(N)nc(Cl)nc43)[C@@H](F)[C@@H]2O)(C(=O)O)c2cscn2)cc1 (single isomer, unassigned) [Example 20]
433 nM | N#Cc1ccccc1-c1ccc(CC(OC[C@H]2O[C@@H](n3cnc4c(N)nc(Cl)nc43)[C@@H](F)[C@@H]2O)(C(=O)O)c2cscn2)cc1 (mixture of isomers) [Example 12, 2-(((2R3R,4S,5R)-5-(6-amino-2-chloro-9H-purin-9-yl)-4-fluoro-3-hydroxytetrahydrofuran-2-yl)methoxy)-3-(2′-cyano-[1,1′-biphenyl]-4-yl)-2-(thiazol-4-yl)propanoic acid]
218 nM | Nc1nc(Cl)nc2c1ncn2[C@@H]1O[C@H](COC(Cc2ccc(-c3ccccc3C(=O)O)cc2)(C(=O)O)c2cscn2)[C@@H](O)[C@@H]1F (mixture of isomers) [Example 13, 4′-(2-(((2R,3R,4S,5R)-5-(6-amino-2-chloro-9H-purin-9-yl)-4-fluoro-3-hydroxytetrahydrofuran-2-yl)methoxy)-2-carboxy-2-(thiazol-4-yl)ethyl)-[1,1′-biphenyl]-2-carboxylic acid]
90 nM | Cc1nc([C@](Cc2ccc(-c3ccccc3)cc2)(OC[C@H]2O[C@@H](n3cnc4c(N)nc(Cl)nc43)[C@H](O)[C@@H]2O)C(=O)O)cs1 (single isomer, unassigned) [Example 28]
1530 nM | Nc1nc(Cl)nc2c1ncn2[C@@H]1O[C@H](CO[C@@](Cc2ccc(-c3ccc(C(=O)O)cc3)cc2)(C(=O)O)c2cscn2)[C@@H](O)[C@@H]1F (single isomer, unassigned) [Example 11]
